# Test results as given in patent US20170135996A1, “PHARMACEUTICAL DEPOT FOR N-{5-[(CYCLOPROPYLAMINO)CARBONYL]-2-METHYLPHENYL)-3-FLUORO-4-(PYRIDIN-2-YLMETHOXY)BENZAMIDE” (AstraZeneca AB, priority 2008, published 2017).
# Key:
# [1] = Systemic pharmacokinetic parameters in the rat; format: in vivo; design: systemic Vdss: unit not given here
# [2] = Hydrolytic stability of PA in the acidic microclimate of the degrading polymer; format: physicochemical; settings: acidic microclimate created upon degradation of the polymer
# [3] = Synovial fluid pharmacokinetics after intra-articular injection of unformulated PA; format: in vivo; settings: rat, 15 ng in 5 μl intra-articular
# Description: Unformulated N-{5-[(cyclopropylamino)carbonyl]-2-methylphenyl}-3-fluoro-4-(pyridin-2-ylmethoxy)benzamide was intra-articularly injected (15 ng in 5 μl injection in PBS) to rats and synovial fluid concentrations were determined at 15, 30 and 60 minutes post dose. The synovial fluid from the rat knee joint was sampled using a knee wash methodology. The knee was exposed and a transverse cut made to the patellar tendon proximal to the tibia. The knee cavity was opened up by dissection, and the knee lavaged between the tibial and femoral condyles with 3×25 μl PBS using an eppendorf pipette.
# [4] = tested on: rat mono-iodoacetate (MIA) model of joint pain; assay: Rat mono-iodoacetate (MIA) model of joint pain, weight bearing asymmetry; format: in vivo; settings: unformulated, 29 μg/ml (69 μM) in 5 μl intra-articular, 3 days post MIA
# Description: All studies were carried out in a rat mono-iodoacetate (MIA) model of joint pain as a screen for analgesia of pain driven by joint inflammation and destruction (see Ivanavicius et al., 2007 Pain 128 p272). The MIA model induces an early synovitis (day 3) followed by progressive loss of articular cartilage, and subchondral bone pathology by day 14.
# N-{5-[(cyclopropylamino)carbonyl]-2-methylphenyl}-3-fluoro-4-(pyridin-2-ylmethoxy)benzamide was formulated into PLGA microspheres (50:50 PLGA as in Example 1) and tested in the MIA model. Rats were injected intra-articularly with MIA on day 0. Three days post MIA (to allow disease to progress) animals were injected intra-articularly with formulated N-{5-[(cyclopropylamino)carbonyl]-2-methylphenyl}-3-fluoro-4-(pyridin-2-ylmethoxy)benzamide in 50:50 PLGA (200 μg/30 μl) or with microsphere formulation ([…]).
# A dose of 29 μg/ml (69 μM) of N-{5-[(cyclopropylamino)carbonyl]-2-methylphenyl}-3-fluoro-4-(pyridin-2-ylmethoxy)benzamide was delivered in a 5 μl injection volume to give a Cmin concentration of 1 μM at 1.5 hours. The dosing was carried out 3 days post MIA at the same time point that formulated N-{5-[(cyclopropylamino)carbonyl]-2-methylphenyl}-3-fluoro-4-(pyridin-2-ylmethoxy)benzamide as the PA were dosed. […]
smiles,measurement,setting,value
"Cc1ccc(C(=O)NC2CC2)cc1NC(=O)c1ccc(OCc2ccccn2)c(F)c1 [PA, N-{5-[(cyclopropylamino)carbonyl]-2-methylphenyl}-3-fluoro-4-(pyridin-2-ylmethoxy)benzamide]",systemic Vdss,[1],1.71 kg⁻¹
same,clearance,"[1]; in vivo, read-out: systemic Cl",14 mL/min/kg
same,hydrolytic stability,[2],hydrolytically stable
same,Clearance (Cl),[3],61 µL/h
same,Volume of distribution (Vdss),[3],9 µL
same,half-life,[3]; read-out: Half-life (t1/2) (converted),12 min
same,efficacy in MIA model (% weight distribution),[4],no efficacy
